Laboratory results as given in paper PMC11207571, “Applicability of MDR1 Overexpressing Abcb1KO-MDCKII Cell Lines for Investigating In Vitro Species Differences and Brain Penetration Prediction” (Pharmaceutics, 2024).

Experiments:
mouse Mdr1a [1] = target: T1, mouse Mdr1a (Mus musculus, UniProt P21447); experiment: Bidirectional transport assay, efflux ratio in Abcb1KO-MDCKII mMDR1 cells; conditions: mouse, pH 7.4
Experimental: (§1) Eluent A consisted of 0.1% formic acid in water, eluent B consisted of 0.1% formic acid in acetonitrile. Then, 10 µL samples were injected into the HPLC-MS/MS system. Mass spectrometric detection was performed in SRM mode, and ion transitions for each analyte were optimized during method development. Samples were analyzed in pools, with each pool containing three to four analytes.

hMDR1 and hBCRP = experiment: Brain permeability classification from total ER of hMDR1 and hBCRP against in vivo rodent Kp,uu,brain
Experimental: MDR1 and/or BCRP substrate properties were investigated by binary classification analysis on CNS+ and CNS− compounds. […] True negative (TN), where there was no efflux and the CNS+ compound crossed the BBB. […] The sensitivity and specificity of the estimation of brain penetration along with MDR1 and BCRP activity were calculated from predictive performance metrics.
First, NET ER was calculated and used for human predictions, (2) NET ER=ER(−inh)[…]ER(+inh) where ER(−inh) is ER in the absence of inhibitor, and ER(+inh) is ER in the presence of inhibitor, for hMDR1 (ERMDR1) or hBCRP (ERBCRP).
To identify the correlation between the in vivo rodent Kp,uu,brain and ERs, 58 compounds with known Kp,uu,brain were selected. An ER of 2 was used as a cut-off to classify MDR1 substrates and a Kp,uu,brain of 0.3 was used as a threshold for CNS penetrant compounds. The resulting graphs are thus divided into four quadrants. Brain penetration (Kp,uu,brain) was used as the logical value true condition, with compounds having Kp,uu,brain ≤ 0.3 considered positive. Q2 and Q3 comprise molecules with impaired brain penetration. […] Molecules in Q4 (true negatives, TN) can freely access the brain (Figure 2). Predictive performance metrics were calculated to show the efficacy of the established cell lines in BBB permeability classification (Table 1). Sensitivity refers to the ability of the model to correctly classify CNS-restricted molecules based on MDR1 substrate nature.
Subsequently, for a more reliable prediction of brain penetration, data generated in the hBCRP cell line were included in the analysis. hBCRP assay conditions and evaluations were identical to that of MDR1 cell lines, which allowed proper comparisons (Figure 2E,F). Total ER was calculated by combining ERs determined in BCRP and hMDR1 cell lines based on Equation (3), with an ER cut-off of 3. […] Eventually, total ERs were also assessed with the Relative Expression Factor (REF) (Equation (4); Figure 2E,F). REF is an in vitro and in vivo correlation scaler, calculated from transporter protein abundances in brain microvessels versus overexpressing cell lines.

cynomolgus monkey Mdr1 [2] = target: T2, cynomolgus monkey Mdr1 (Macaca fascicularis, UniProt Q8HZQ6); experiment: Bidirectional transport assay, efflux ratio in Abcb1KO-MDCKII cyMDR1 cells; conditions: cynomolgus monkey, pH 7.4
Experimental: as §1

[3] = Bidirectional transport assay, efflux ratio in Abcb1KO-MDCKII-Mock control cells; conditions: dog, MDCK, pH 7.4
Experimental: as §1

human MDR1 [4] = target: T3, human MDR1 (Homo sapiens, UniProt P08183); experiment: Bidirectional transport assay, efflux ratio in Abcb1KO-MDCKII hMDR1 cells; conditions: human, MDCK-MDR1, pH 7.4
Experimental: as §1

rat Mdr1a [5] = target: T4, rat Mdr1a (Rattus norvegicus, UniProt Q6PSM0); experiment: Bidirectional transport assay, efflux ratio in Abcb1KO-MDCKII rMDR1 cells; conditions: rat, pH 7.4
Experimental: as §1

human BCRP = target: T5, human BCRP (Homo sapiens, UniProt Q9UNQ0); experiment: Bidirectional transport assay, efflux ratio in MDCKII-BCRP cells; conditions: human, pH 7.4
T5 sequence (Q9UNQ0 1-655): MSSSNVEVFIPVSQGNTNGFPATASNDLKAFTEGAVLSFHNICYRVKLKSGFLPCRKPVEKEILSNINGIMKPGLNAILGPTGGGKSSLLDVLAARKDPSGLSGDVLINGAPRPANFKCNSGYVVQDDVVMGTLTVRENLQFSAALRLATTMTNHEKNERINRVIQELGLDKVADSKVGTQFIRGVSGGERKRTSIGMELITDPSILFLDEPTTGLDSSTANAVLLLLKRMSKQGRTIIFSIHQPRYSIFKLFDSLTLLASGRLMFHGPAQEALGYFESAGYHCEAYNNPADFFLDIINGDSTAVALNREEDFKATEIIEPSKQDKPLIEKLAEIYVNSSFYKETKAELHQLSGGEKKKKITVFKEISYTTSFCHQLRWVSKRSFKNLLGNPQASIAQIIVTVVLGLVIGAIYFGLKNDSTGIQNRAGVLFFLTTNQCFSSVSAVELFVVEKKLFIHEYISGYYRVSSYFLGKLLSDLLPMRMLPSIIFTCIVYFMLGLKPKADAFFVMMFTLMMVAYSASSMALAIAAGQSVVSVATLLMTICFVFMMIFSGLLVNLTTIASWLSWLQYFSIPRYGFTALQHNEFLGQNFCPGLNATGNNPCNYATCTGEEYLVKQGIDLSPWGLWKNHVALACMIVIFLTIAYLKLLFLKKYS
Experimental: as §1

cynomolgus monkey Mdr1 [6] = target: T2, cynomolgus monkey Mdr1; experiment: Inhibition of 3H-digoxin or 3H-quinidine bidirectional transport in cyMDR1 cells; conditions: Inhibition of quinidine transport IC50±SD, cyMDR1, probe 3H-quinidine 0.1 µM, 60 min; IC50 from ER
rat Mdr1a [7] = target: T4, rat Mdr1a; experiment: Inhibition of 3H-digoxin or 3H-quinidine bidirectional transport in rMDR1 cells; assay type: cell-based; design: rat Mdr1a (NM_133401.1); expressed in transfected cells; host or cells: Abcb1KO-MDCKII (canine kidney, endogenous Abcb1 knocked out), transduced, single-cell clone; conditions: IC50 from ER
cynomolgus monkey Mdr1 [8] = target: T2, cynomolgus monkey Mdr1; experiment: cell-based
human MDR1 [9] = target: T3, human MDR1; experiment: Inhibition of 3H-digoxin or 3H-quinidine bidirectional transport in hMDR1 cells; conditions: IC50 from ER
mouse Mdr1a [10] = target: T1, mouse Mdr1a; experiment: Inhibition of 3H-digoxin or 3H-quinidine bidirectional transport in mMDR1 cells; assay type: cell-based; design: mouse Mdr1a (NM_011076.3); expressed in transfected cells; host or cells: Abcb1KO-MDCKII (canine kidney, endogenous Abcb1 knocked out), transduced, single-cell clone; conditions: IC50 from ER
[11] = total ER cut-off 3, in vivo rodent Kp,uu,brain cut-off 0.3
[12] = Inhibition of digoxin transport IC50±SD, rMDR1, probe 3H-digoxin 1 µM, 120 min
[13] = Inhibition of quinidine transport IC50±SD, rMDR1, probe 3H-quinidine 1 µM, 30 min
[14] = Inhibition of digoxin transport IC50±SD, hMDR1, probe 3H-digoxin 1 µM, 120 min
[15] = Inhibition of quinidine transport IC50±SD, hMDR1, probe 3H-quinidine 1 µM, 60 min
[16] = Inhibition of digoxin transport IC50±SD, mMDR1, probe 3H-digoxin 1 µM, 120 min
[17] = Inhibition of quinidine transport IC50±SD, mMDR1, probe 3H-quinidine 1 µM, 60 min

T1 sequence (P21447 whole entry): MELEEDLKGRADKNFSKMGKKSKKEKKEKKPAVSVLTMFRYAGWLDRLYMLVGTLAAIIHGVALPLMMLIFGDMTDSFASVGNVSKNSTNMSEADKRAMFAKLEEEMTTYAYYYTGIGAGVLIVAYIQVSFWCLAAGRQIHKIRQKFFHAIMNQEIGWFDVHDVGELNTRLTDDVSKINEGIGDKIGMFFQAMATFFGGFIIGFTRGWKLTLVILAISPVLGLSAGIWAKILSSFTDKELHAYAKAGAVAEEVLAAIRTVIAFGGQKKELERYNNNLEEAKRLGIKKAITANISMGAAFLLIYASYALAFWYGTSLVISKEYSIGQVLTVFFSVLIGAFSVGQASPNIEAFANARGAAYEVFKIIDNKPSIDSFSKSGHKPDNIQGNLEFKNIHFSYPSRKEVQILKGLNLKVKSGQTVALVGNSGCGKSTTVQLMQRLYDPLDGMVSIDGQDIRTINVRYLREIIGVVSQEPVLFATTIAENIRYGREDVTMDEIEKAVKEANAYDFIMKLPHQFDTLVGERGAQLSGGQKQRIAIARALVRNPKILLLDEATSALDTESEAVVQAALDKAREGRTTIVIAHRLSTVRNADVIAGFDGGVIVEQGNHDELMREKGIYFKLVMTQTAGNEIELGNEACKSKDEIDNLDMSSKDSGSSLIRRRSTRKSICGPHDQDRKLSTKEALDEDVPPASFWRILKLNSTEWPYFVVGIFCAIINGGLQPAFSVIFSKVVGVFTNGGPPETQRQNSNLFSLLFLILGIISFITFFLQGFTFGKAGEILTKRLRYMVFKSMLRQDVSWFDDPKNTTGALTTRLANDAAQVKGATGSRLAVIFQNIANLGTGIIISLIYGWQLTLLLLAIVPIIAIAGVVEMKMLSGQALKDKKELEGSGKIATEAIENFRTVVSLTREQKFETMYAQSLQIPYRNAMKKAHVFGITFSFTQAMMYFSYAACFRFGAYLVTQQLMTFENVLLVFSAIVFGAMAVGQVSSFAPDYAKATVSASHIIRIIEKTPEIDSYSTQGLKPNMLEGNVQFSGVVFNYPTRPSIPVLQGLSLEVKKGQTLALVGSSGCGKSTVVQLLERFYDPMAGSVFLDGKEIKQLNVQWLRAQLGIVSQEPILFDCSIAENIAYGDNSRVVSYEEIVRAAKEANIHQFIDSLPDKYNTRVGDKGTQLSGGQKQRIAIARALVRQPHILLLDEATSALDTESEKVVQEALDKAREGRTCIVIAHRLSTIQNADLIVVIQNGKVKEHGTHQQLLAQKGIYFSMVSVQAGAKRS
T3 sequence (P08183 whole entry): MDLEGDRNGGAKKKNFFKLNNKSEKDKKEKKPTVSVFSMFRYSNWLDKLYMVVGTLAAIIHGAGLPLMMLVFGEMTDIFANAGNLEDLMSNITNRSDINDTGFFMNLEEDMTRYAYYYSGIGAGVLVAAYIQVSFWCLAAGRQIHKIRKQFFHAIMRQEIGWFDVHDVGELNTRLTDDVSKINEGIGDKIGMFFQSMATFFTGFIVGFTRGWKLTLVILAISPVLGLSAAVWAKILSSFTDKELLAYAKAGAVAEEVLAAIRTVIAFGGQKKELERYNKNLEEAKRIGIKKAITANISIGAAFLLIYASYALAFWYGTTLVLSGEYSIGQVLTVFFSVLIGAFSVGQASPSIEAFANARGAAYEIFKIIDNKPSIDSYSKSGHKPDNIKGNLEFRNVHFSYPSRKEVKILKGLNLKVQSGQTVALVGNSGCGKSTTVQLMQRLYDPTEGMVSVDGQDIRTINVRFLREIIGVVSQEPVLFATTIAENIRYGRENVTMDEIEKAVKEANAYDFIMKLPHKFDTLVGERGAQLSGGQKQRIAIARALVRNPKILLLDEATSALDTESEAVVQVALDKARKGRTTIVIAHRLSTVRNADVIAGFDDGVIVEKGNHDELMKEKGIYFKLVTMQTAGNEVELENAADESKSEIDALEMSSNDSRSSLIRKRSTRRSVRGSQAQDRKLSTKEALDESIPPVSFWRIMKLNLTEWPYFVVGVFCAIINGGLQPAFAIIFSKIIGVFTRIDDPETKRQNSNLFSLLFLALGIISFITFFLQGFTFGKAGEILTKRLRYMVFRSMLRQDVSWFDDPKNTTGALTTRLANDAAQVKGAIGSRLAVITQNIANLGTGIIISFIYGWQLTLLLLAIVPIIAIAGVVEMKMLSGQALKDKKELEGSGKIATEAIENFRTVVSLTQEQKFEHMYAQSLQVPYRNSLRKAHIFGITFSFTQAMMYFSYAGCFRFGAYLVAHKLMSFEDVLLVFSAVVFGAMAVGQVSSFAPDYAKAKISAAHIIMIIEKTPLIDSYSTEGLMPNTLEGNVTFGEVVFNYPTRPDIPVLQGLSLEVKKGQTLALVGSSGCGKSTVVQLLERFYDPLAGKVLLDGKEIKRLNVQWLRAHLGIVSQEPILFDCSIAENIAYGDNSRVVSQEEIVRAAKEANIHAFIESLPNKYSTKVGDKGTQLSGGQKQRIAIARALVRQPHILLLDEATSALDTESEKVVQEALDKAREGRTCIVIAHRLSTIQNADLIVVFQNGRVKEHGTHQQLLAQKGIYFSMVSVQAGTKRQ
T2 sequence (Q8HZQ6 1-1283): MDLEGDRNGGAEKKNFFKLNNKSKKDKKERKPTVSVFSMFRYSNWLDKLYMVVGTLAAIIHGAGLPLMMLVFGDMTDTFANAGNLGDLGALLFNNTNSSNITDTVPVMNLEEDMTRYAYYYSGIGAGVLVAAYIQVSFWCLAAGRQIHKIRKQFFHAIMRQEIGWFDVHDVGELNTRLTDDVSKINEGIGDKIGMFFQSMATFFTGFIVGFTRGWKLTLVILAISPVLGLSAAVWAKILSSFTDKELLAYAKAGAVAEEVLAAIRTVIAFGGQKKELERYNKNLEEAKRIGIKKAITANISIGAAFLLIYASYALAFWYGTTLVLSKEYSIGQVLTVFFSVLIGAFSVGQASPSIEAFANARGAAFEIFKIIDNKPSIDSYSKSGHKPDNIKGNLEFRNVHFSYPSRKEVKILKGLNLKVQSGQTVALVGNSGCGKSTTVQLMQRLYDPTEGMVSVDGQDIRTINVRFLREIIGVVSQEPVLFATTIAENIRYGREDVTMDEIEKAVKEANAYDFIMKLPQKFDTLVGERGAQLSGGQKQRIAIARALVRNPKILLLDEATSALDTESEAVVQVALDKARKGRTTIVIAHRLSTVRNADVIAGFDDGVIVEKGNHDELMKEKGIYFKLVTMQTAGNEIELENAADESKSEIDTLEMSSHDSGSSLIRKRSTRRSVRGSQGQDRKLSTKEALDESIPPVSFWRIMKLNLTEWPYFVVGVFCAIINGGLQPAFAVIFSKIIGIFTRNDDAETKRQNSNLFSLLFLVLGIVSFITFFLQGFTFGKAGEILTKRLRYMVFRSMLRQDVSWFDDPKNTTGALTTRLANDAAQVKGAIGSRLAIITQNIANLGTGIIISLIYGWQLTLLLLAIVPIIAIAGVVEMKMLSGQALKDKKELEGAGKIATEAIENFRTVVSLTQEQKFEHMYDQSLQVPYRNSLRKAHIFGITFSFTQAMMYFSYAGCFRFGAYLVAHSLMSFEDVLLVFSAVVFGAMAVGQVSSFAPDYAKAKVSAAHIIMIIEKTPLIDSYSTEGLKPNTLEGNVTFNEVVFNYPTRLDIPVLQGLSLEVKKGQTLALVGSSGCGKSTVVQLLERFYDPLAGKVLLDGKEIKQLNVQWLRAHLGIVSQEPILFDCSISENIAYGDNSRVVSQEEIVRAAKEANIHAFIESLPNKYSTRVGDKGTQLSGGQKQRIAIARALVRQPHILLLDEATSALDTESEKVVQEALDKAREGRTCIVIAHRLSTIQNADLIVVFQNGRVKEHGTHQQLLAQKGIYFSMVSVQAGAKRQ
T4 sequence (Q6PSM0 1-1272): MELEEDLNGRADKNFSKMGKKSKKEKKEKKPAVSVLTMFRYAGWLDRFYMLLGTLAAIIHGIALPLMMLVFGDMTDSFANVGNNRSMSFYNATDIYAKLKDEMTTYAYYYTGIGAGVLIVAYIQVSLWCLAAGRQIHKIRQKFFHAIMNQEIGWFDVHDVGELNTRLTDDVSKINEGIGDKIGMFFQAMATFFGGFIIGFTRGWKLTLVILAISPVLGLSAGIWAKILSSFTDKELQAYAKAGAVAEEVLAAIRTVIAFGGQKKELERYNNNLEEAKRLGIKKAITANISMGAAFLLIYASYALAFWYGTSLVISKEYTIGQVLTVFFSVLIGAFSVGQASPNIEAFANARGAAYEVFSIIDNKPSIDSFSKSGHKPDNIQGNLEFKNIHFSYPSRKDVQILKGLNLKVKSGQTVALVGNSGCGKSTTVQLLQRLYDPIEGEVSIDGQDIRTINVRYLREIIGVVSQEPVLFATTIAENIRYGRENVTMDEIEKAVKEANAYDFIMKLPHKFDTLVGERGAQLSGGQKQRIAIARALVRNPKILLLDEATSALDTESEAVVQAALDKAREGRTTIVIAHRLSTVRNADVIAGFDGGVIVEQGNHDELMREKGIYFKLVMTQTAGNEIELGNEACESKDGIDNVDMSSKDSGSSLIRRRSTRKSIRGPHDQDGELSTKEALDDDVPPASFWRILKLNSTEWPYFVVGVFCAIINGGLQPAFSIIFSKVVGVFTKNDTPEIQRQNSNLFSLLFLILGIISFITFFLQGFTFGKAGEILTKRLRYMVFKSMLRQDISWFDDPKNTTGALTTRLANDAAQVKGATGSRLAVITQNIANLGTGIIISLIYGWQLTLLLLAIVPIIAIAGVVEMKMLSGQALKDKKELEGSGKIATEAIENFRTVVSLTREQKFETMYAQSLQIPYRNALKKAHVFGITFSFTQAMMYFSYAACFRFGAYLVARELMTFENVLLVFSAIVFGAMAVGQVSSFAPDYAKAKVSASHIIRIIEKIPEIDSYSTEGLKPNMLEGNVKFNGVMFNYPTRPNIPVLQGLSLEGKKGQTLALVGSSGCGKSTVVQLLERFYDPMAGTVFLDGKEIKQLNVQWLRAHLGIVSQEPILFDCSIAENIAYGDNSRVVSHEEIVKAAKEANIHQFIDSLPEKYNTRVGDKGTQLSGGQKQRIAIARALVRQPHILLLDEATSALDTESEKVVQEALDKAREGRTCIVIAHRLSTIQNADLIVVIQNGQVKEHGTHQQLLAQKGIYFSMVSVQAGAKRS

Row | Structure (SMILES) | efflux ratio at 120 min, 1 µM (mouse Mdr1a [1]) | CNS penetration classification based on total ER (hMDR1 + hBCRP) (hMDR1 and hBCRP; [11]) | efflux ratio at 120 min, 1 µM (cynomolgus monkey Mdr1 [2]) | efflux ratio at 120 min, 1 µM [3] | efflux ratio at 120 min, 1 µM (human MDR1 [4]) | efflux ratio at 120 min, 1 µM (rat Mdr1a [5]) | efflux ratio at 120 min, 1 µM (human BCRP) | CNS penetration classification based on total ER (hMDR1 + hBCRP) (hMDR1 and hBCRP; not told) | IC50 (cynomolgus monkey Mdr1 [6]) | IC50 (rat Mdr1a [7]; [12]) | IC50 (rat Mdr1a [7]; [13]) | IC50 (cynomolgus monkey Mdr1 [8]) | IC50 (human MDR1 [9]; [14]) | IC50 (human MDR1 [9]; [15]) | IC50 (mouse Mdr1a [10]; [16]) | IC50 (mouse Mdr1a [10]; [17])
1 | CNS(=O)(=O)Cc1ccc2[nH]cc(CCN(C)C)c2c1 [Sumatriptan] | 1.76 ± 0.08 | false negatives | 1.53 ± 0.1 | 0.93 ± 0.04 | 1.88 ± 0.12 | 2.02 ± 0.12 | 1.74 ± 0.24 |  |  |  |  |  |  |  |  | 
2 | CC(=O)CC(c1ccccc1)c1c(O)c2ccccc2oc1=O (centres unmarked) [Warfarin] | 0.58 ± 0.02 |  | 0.58 ± 0.05 | 0.54 ± 0.02 | 0.56 ± 0.02 | 0.6 ± 0.01 | 4.03 ± 0.29 | false positives |  |  |  |  |  |  |  | 
3 | COC(=O)C1=C(C)NC(C)=C(C(=O)OC(C)C)C1c1cccc2nonc12 (centres unmarked) [Isradipine] |  |  |  |  |  |  |  |  | 19.3 ± 5.76 µM | 15.2 ± 2.84 µM | 13.6 ± 9.37 µM | 10.6 ± 4.73 µM | > 50 µM | 2.07 ± 1.28 µM | 5.28 ± 2.94 µM | 19.3 ± 3.75 µM
4 | Cc1ccccc1C(=O)Nc1ccc(C(=O)N2CCCC(O)c3cc(Cl)ccc32)c(C)c1 (centres unmarked) [Tolvaptan] |  |  |  |  |  |  |  |  | 5.11 ± 1.65 µM | 8.79 ± 2.81 µM | 4.14 ± 1.47 µM | 6.68 ± 1.63 µM | > 30 µM | 1.28 ± 0.44 µM | 10.9 ± 1.46 µM | 3.92 ± 0.87 µM
5 | CN(C)C(=O)C(CCN1CCC(O)(c2ccc(Cl)cc2)CC1)(c1ccccc1)c1ccccc1 [Loperamide] | 16 ± 2.75 |  | 6.38 ± 0.55 | 0.49 ± 0.03 | 48.7 ± 3.51 | 10.5 ± 2.34 | 2 ± 0.23 |  | 1.36 ± 0.34 µM | 11.1 ± 4.28 µM | 1.01 ± 0.49 µM | 6.3 ± 2.27 µM | 38.3 ± 4.59 µM | 4.75 ± 0.32 µM | 6.5 ± 1.1 µM | 0.96 ± 0.33 µM
6 | COCC(=O)O[C@]1(CCN(C)CCCc2nc3ccccc3[nH]2)CCc2cc(F)ccc2[C@@H]1C(C)C [Mibefradil] |  |  |  |  |  |  |  |  | 3.61 ± 2.04 µM | 7.42 ± 2.76 µM | 1.11 ± 0.21 µM | 4.84 ± 1.82 µM |  |  | 7.15 ± 4.58 µM | 
7 | COc1cc(Cc2cnc(N)nc2N)cc(OC)c1OC [Trimethoprim] | 9.04 ± 0.49 | false positives | 1.65 ± 0.1 | 0.84 ± 0.06 | 7.29 ± 0.69 | 13.2 ± 0.68 | 3.08 ± 0.17 |  |  |  |  |  |  |  |  | 
